Reference: ChEMBL document CHEMBL1201862, “PubChem BioAssay data set” (2004)
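Cultured in 96-well plates, cells were exposed to test compound for 48 hours across five concentrations. At the GI50, growth is halved.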 Active and inactive are the calls of the source. Cut-off read from the data, not from the text of the source: active = GI50 up to about 1.1 µM and inactive = higher.

Key:
Assay in all cases: NCI anticancer screen, dose series, 48 h
SW-620 = system: SW-620
KM12 = system: KM12
HT-29 = system: HT-29
OVCAR-4 = system: OVCAR-4
786-0 = system: 786-0
SR = system: SR
SNB-19 = system: SNB-19
A549 = system: A549
COLO 205 = system: COLO 205
HL-60 = system: HL-60
SK-OV-3 = system: SK-OV-3
SN12C = system: SN12C
NCI-H23 = system: NCI-H23
SK-MEL-28 = system: SK-MEL-28
TK-10 = system: TK-10
NCI-H226 = system: NCI-H226
M19-MEL = system: M19-MEL
RPMI-8226 = system: RPMI-8226
MOLT-4 = system: MOLT-4
HCC 2998 = system: HCC 2998

Measured: GI50

NNC(=S)N/N=C(\c1nc2ccc(Cl)cc2nc1O)C(O)c1ccc(Cl)cc1Cl (configuration not stated)
inactive: SW-620 > 100 µM | KM12 > 100 µM | HT-29 > 100 µM | OVCAR-4 > 100 µM | 786-0 > 100 µM | SR > 100 µM | SNB-19 > 100 µM | A549 > 100 µM | COLO 205 > 100 µM | HL-60 > 100 µM | SK-OV-3 > 100 µM | SN12C > 100 µM | NCI-H23 > 100 µM | SK-MEL-28 > 100 µM | TK-10 > 100 µM | NCI-H226 > 100 µM | M19-MEL > 100 µM | RPMI-8226 > 100 µM | MOLT-4 > 100 µM

COC(=O)C(=O)C(C(=O)C1=NS(=O)(=O)c2cc(S(N)(=O)=O)c(Cl)cc2N1)c1nc2ccc(C(=O)c3ccccc3)cc2nc1O (configuration not stated)
inactive: SW-620 > 100 µM | KM12 67.6 µM | HT-29 > 100 µM | OVCAR-4 81.5 µM | 786-0 > 100 µM | SR 47.9 µM | SNB-19 > 100 µM | A549 > 100 µM | COLO 205 > 100 µM | SN12C > 100 µM | NCI-H23 2.6 µM | HCC 2998 > 100 µM | SK-MEL-28 > 100 µM | TK-10 > 100 µM | NCI-H226 > 100 µM | M19-MEL > 100 µM | RPMI-8226 > 100 µM | MOLT-4 48.6 µM

c1ccc(-c2[nH]c(-c3ccccc3)c(-c3cnccn3)c2-c2cnccn2)cc1
inactive: SW-620 > 100 µM | KM12 30.3 µM | HT-29 91.2 µM | OVCAR-4 > 100 µM | 786-0 > 100 µM | SR 82.8 µM | SNB-19 > 100 µM | A549 > 100 µM | COLO 205 > 100 µM | HL-60 > 100 µM | SK-OV-3 > 100 µM | SN12C > 100 µM | NCI-H23 > 100 µM | HCC 2998 > 100 µM | SK-MEL-28 > 100 µM | TK-10 > 100 µM | NCI-H226 > 100 µM | M19-MEL > 100 µM | RPMI-8226 82.6 µM | MOLT-4 > 100 µM

COC(=O)c1ccc(Cc2ccc(C(=O)OC)o2)o1
inactive: SW-620 > 378 µM | KM12 > 378 µM | HT-29 > 378 µM | 786-0 > 378 µM | SR > 378 µM | SNB-19 327 µM | A549 > 378 µM | COLO 205 > 378 µM | HL-60 > 378 µM | SK-OV-3 > 378 µM | SN12C > 378 µM | NCI-H23 > 378 µM | HCC 2998 > 378 µM | SK-MEL-28 > 378 µM | TK-10 > 378 µM | NCI-H226 > 378 µM | M19-MEL > 378 µM | RPMI-8226 > 378 µM | MOLT-4 > 378 µM

Nc1nc2c(nnn2C2C=C(CO)C(O)C2O)c(=O)[nH]1 (configuration not stated)
inactive: SW-620 66.4 µM | KM12 > 100 µM | HT-29 > 100 µM | OVCAR-4 > 100 µM | 786-0 68.5 µM | SR > 100 µM | SNB-19 > 100 µM | A549 > 100 µM | COLO 205 > 100 µM | SK-OV-3 > 100 µM | SN12C 94.4 µM | NCI-H23 > 100 µM | HCC 2998 > 100 µM | SK-MEL-28 > 100 µM | TK-10 > 100 µM | NCI-H226 > 100 µM | M19-MEL > 100 µM | MOLT-4 42.5 µM

Oc1ncnc2c1CCCN2
inactive: SW-620 > 100 µM | KM12 > 100 µM | HT-29 > 100 µM | 786-0 > 100 µM | SR > 100 µM | SNB-19 > 100 µM | A549 > 100 µM | COLO 205 > 100 µM | HL-60 > 100 µM | SK-OV-3 > 100 µM | SN12C > 100 µM | NCI-H23 > 100 µM | HCC 2998 > 100 µM | SK-MEL-28 > 100 µM | TK-10 > 100 µM | M19-MEL > 100 µM | RPMI-8226 > 100 µM | MOLT-4 > 100 µM
